Peptide text beside a SMILES is read from it.
Test system: PBMCs derived from HLA-A2+ cancer patients

Structure (SMILES) | HLA-A2-restricted cytotoxic immune response
CC(C)C[C@H](NC(=O)[C@@H](N)CCCCN)C(=O)N[C@@H](Cc1ccccc1)C(=O)NCC(=O)N[C@H](C(=O)N[C@@H](CO)C(=O)NCC(=O)N[C@@H](CCC(N)=O)C(=O)N[C@@H](CCCCN)C(=O)N[C@H](C(=O)O)[C@@H](C)O)[C@@H](C)O [EGFR479-488] (H-KLFGTSGQKT-OH) | capable of inducing
CC(C)C[C@H](NC(=O)[C@@H](N)Cc1ccc(O)cc1)C(=O)N[C@@H](CC(N)=O)C(=O)N[C@H](C(=O)N[C@H](C(=O)N[C@@H](CCC(N)=O)C(=O)N1CCC[C@H]1C(=O)N[C@H](C(=O)N[C@@H](CS)C(=O)N[C@H](C(=O)O)C(C)C)[C@@H](C)O)C(C)C)[C@@H](C)O [EGFR1138-1147] (H-YLNTVQPTCV-OH) | capable of inducing
